In assay [1] the test system is microorganisms. The assay can be described thus: Morphology, biofilm and growth disrupting peptides (Table 5). Also on record: key: A: Peptide aggregates; B: Less hyphal formation; Clumps; Diffuse clumps and small polyps; F: Diffuse growth; H: Thin; I: Growth inhibition; Microcolony formation; Rippled; Small polyps; Thick; W: Halo formation on top, microlonies on bottom. Type of assay: cell-based. From the text: In certain embodiments peptides that induce alterations in phenotype or other biological activities can also be used as antimicrobial effector moieties.

Assay [2] relates to microorganisms. The assay can be described thus: Peptide activities: targeting/binding, antimicrobial, growth or phenotype altering (Tables 7, 8). The assay is classed as cell-based. The conditions noted are these: peptides having multiple activities.

Ends that are not written are not given here.

With “PF-526: peptide having multiple activities (VLLLFIFQPFQKQLL-NH2)”, the “Organism, effect” value in the assay with microorganisms [1] (C. albicans) is on record as “C. albicans (C)”; with microorganisms [1] (E. coli) it was “E. coli (R)”; in the assay with microorganisms [1] (MRSA) it was “MRSA (C)”; in the assay with microorganisms [1] (S. epidermidis) it was “S. epidermidis (C)”; in the assay with microorganisms [1] (S. pneumoniae), “S. pneumoniae (R)”. The Activities entry with microorganisms [2] is given as “G B”.
On to “PF-537: peptide having multiple activities (LANDYYKKTKKSW; Peptide with targeting and/or antimicrobial activity)”, for which the “Organism, effect” value in the assay on microorganisms [1] (S. pneumoniae) is reported as “S. pneumoniae (C)”. Also, the Activities result in the assay with microorganisms [2] is on record as “G B”.
In the case of “PF-539: peptide having multiple activities (SIILTKKKRRKIPLSIDSQIYKYTFKQ; Peptide with targeting and/or antimicrobial activity)”, the “Organism, effect” value is reported as “MRSA (H)” with microorganisms [1] (MRSA) and “S. pneumoniae (A)” in the assay on microorganisms [1] (S. pneumoniae). Further, the Activities result in the assay on microorganisms [2] is on record as “G B”.
For “PF-543: peptide having multiple activities (NILFGIIGFVVAMTAAVIVTAISIAK; Peptide with targeting and/or antimicrobial activity)”, the “Organism, effect” value is reported as “E. coli (C)” in the assay on microorganisms [1] (E. coli); “M. luteus (C)” with microorganisms [1] (M. luteus); “MRSA (D)” in the assay with microorganisms [1] (MRSA); “S. epidermidis (D)” in the assay on microorganisms [1] (S. epidermidis); “S. mutans (S)” with microorganisms [1] (S. mutans); “S. pneumoniae (D)” in the assay with microorganisms [1] (S. pneumoniae). Besides, the Activities result in the assay with microorganisms [2] is given as “G B”.
Turning to “PF-544: peptide having multiple activities (FGEKQMRSWWKVHWFHP; Peptide with targeting and/or antimicrobial activity)”, the “Organism, effect” value in the assay on microorganisms [1] (E. faecalis) was “E. faecalis (R)”; with microorganisms [1] (MRSA) it was “MRSA (D)”; with microorganisms [1] (S. epidermidis), “S. epidermidis (D)”; with microorganisms [1] (S. pneumoniae), “S. pneumoniae (M)”. For the same substance, the Activities entry in the assay with microorganisms [2] is given as “G B”.
With “PF-548: peptide having multiple activities (ARPIADLIHFNSTTVTASGDVYYGPG; Peptide with targeting and/or antimicrobial activity)”, the “Organism, effect” value with microorganisms [1] (B. subtilis) is “B. subtilis (C)”; with microorganisms [1] (C. jeikeium), “C. jeikeium (R)”; with microorganisms [1] (C. jejuni), “C. jejuni (D)”; in the assay with microorganisms [1] (M. luteus) it was “M. luteus (A)”; in the assay on microorganisms [1] (MRSA), “MRSA (M)”; with microorganisms [1] (S. epidermidis), “S. epidermidis (M)”. In the assay on microorganisms [1] (S. pneumoniae), the “Organism, effect” value is “S. pneumoniae (D)”. Also, in the assay with microorganisms [2], the Activities result is on record as “G B”.
For “PF-556: peptide having multiple activities (SLQIRMNTLTAAKASIEAA; Peptide with targeting and/or antimicrobial activity)”, the “Organism, effect” value is recorded as “B. subtilis (C)” in the assay on microorganisms [1] (B. subtilis); “C. jeikeium (D)” in the assay with microorganisms [1] (C. jeikeium); “C. jejuni (R)” in the assay with microorganisms [1] (C. jejuni); “E. faecalis (A)” with microorganisms [1] (E. faecalis); “M. luteus (A)” in the assay with microorganisms [1] (M. luteus); “MRSA (M)” with microorganisms [1] (MRSA). Further, the “Organism, effect” value is reported as “S. epidermidis (A)” in the assay on microorganisms [1] (S. epidermidis) and “S. pneumoniae (D)” in the assay on microorganisms [1] (S. pneumoniae). In the assay with microorganisms [2], the Activities entry is given as “G B”.
Consider “PF-562: peptide having multiple activities (TPEQWLERSTVVVTGLLNRK; Peptide with targeting and/or antimicrobial activity)”, for which the “Organism, effect” value with microorganisms [1] (C. jejuni) is reported as “C. jejuni (R)”; in the assay on microorganisms [1] (M. luteus), “M. luteus (R)”; in the assay with microorganisms [1] (MRSA) it was “MRSA (M)”; with microorganisms [1] (S. epidermidis) it was “S. epidermidis (A)”; in the assay with microorganisms [1] (S. pneumoniae) it was “S. pneumoniae (D)”. Also, the Activities result with microorganisms [2] is recorded as “G B”.
On to “PF-577: peptide having multiple activities (PFETRESFRVPVIGILGGWDYFMHP; Peptide with targeting and/or antimicrobial activity)”, for which the “Organism, effect” value in the assay with microorganisms [1] (C. jejuni) was “C. jejuni (R)”; with microorganisms [1] (E. coli) it was “E. coli (A)”; in the assay with microorganisms [1] (E. faecalis) it was “E. faecalis (A)”; with microorganisms [1] (MRSA), “MRSA (M)”; with microorganisms [1] (P. aeruginosa) it was “P. aeruginosa (A)”; in the assay on microorganisms [1] (S. epidermidis), “S. epidermidis (A)”. Moreover, the “Organism, effect” value in the assay with microorganisms [1] (S. pneumoniae) is “S. pneumoniae (R)”. Moreover, the Activities result with microorganisms [2] is listed as “G B”.
For “PF-578: peptide having multiple activities (QKANLRIGFTYTSDSNVCNLTFALLGSK; Peptide with targeting and/or antimicrobial activity)”, the “Organism, effect” value in the assay on microorganisms [1] (E. coli) was “E. coli (C)”; in the assay with microorganisms [1] (M. luteus) it was “M. luteus (C)”; with microorganisms [1] (MRSA) it was “MRSA (C)”; in the assay on microorganisms [1] (P. mirabilis) it was “P. mirabilis (C)”; in the assay with microorganisms [1] (S. epidermidis) it was “S. epidermidis (D)”; in the assay on microorganisms [1] (S. mutans), “S. mutans (D)”. In addition, the “Organism, effect” value with microorganisms [1] (S. pneumoniae) is “S. pneumoniae (D)”. In addition, in the assay on microorganisms [2], the Activities result is “G B”.
With “PF-581: peptide having multiple activities (WTARARR; Peptide with targeting and/or antimicrobial activity)”, the “Organism, effect” value in the assay on microorganisms [1] (C. jejuni) is reported as “C. jejuni (A)”; in the assay on microorganisms [1] (E. faecalis) it was “E. faecalis (A)”; with microorganisms [1] (MRSA), “MRSA (A)”; with microorganisms [1] (S. pneumoniae), “S. pneumoniae (A)”. In the assay on microorganisms [2], the Activities entry is given as “G B”.
For the substance “PF-586: peptide having multiple activities (chain 1 FFNQANYFFKEF; chain 2 FFNQANYFFKEF; Peptide with targeting and/or antimicrobial activity)”, the “Organism, effect” value is “C. jejuni (D)” in the assay with microorganisms [1] (C. jejuni); “E. coli (C)” in the assay on microorganisms [1] (E. coli); “E. faecalis (D)” in the assay with microorganisms [1] (E. faecalis); “MRSA (D)” in the assay on microorganisms [1] (MRSA); “S. epidermidis (C)” in the assay on microorganisms [1] (S. epidermidis); “S. pneumoniae (D)” in the assay with microorganisms [1] (S. pneumoniae). The Activities entry in the assay with microorganisms [2] is “G B”.
Regarding “PF-592: peptide having multiple activities (chain 1 IMKNYKYFKLFIVKYALF; chain 2 IMKNYKYFKLFIVKYALF; Peptide with targeting and/or antimicrobial activity)”, the “Organism, effect” value in the assay with microorganisms [1] (C. jejuni) is listed as “C. jejuni (S)”; with microorganisms [1] (E. coli), “E. coli (C)”; in the assay with microorganisms [1] (E. faecalis) it was “E. faecalis (D)”; in the assay with microorganisms [1] (MRSA) it was “MRSA (D)”; in the assay with microorganisms [1] (S. epidermidis), “S. epidermidis (M)”; in the assay on microorganisms [1] (S. pneumoniae), “S. pneumoniae (D)”. The Activities entry with microorganisms [2] is given as “G B”.
Regarding “PF-595: peptide having multiple activities (chain 1 LQNKIYELLYIKERSKLCS; chain 2 LQNKIYELLYIKERSKLCS; Peptide with targeting and/or antimicrobial activity)”, the “Organism, effect” value in the assay with microorganisms [1] (C. jejuni) was “C. jejuni (D)”; in the assay with microorganisms [1] (E. coli), “E. coli (C)”; with microorganisms [1] (E. faecalis), “E. faecalis (D)”; in the assay on microorganisms [1] (MRSA), “MRSA (D)”; in the assay on microorganisms [1] (S. epidermidis) it was “S. epidermidis (C)”; in the assay on microorganisms [1] (S. pneumoniae) it was “S. pneumoniae (R)”. Moreover, the Activities entry in the assay on microorganisms [2] is listed as “G B”.
In the case of “PF-596: peptide having multiple activities (chain 1 SKMWDKILTILILILELIRELIKL; chain 2 SKMWDKILTILILILELIRELIKL; Peptide with targeting and/or antimicrobial activity)”, the “Organism, effect” value with microorganisms [1] (C. jejuni) is reported as “C. jejuni (D)”; in the assay with microorganisms [1] (E. coli) it was “E. coli (C)”; in the assay with microorganisms [1] (E. faecalis), “E. faecalis (D)”; in the assay on microorganisms [1] (MRSA), “MRSA (D)”; in the assay with microorganisms [1] (S. epidermidis) it was “S. epidermidis (D)”; in the assay with microorganisms [1] (S. pneumoniae) it was “S. pneumoniae (D)”. Also, in the assay on microorganisms [2], the Activities result is given as “G B”.
For “PF-605: peptide having multiple activities (chain 1 HYRWNTQWWKY; chain 2 HYRWNTQWWKY; Peptide with targeting and/or antimicrobial activity)”, the “Organism, effect” value in the assay on microorganisms [1] (C. albicans) was “C. albicans (B)”; in the assay with microorganisms [1] (C. jejuni) it was “C. jejuni (R)”; in the assay with microorganisms [1] (E. coli), “E. coli (C)”; in the assay on microorganisms [1] (E. faecalis), “E. faecalis (R)”; in the assay with microorganisms [1] (MRSA), “MRSA (C)”; with microorganisms [1] (P. aeruginosa), “P. aeruginosa (A)”. Also, the “Organism, effect” value is “S. epidermidis (R)” in the assay on microorganisms [1] (S. epidermidis) and “S. pneumoniae (D)” with microorganisms [1] (S. pneumoniae). Further, in the assay with microorganisms [2], the Activities entry was “G B”.
On to “PF-610: peptide having multiple activities (chain 1 VFLKLKTSKIDLASIIFYP; chain 2 VFLKLKTSKIDLASIIFYP; Peptide with targeting and/or antimicrobial activity)”, for which the “Organism, effect” value in the assay on microorganisms [1] (C. jejuni) is recorded as “C. jejuni (D)”; with microorganisms [1] (E. coli), “E. coli (C)”; in the assay with microorganisms [1] (E. faecalis), “E. faecalis (D)”; in the assay with microorganisms [1] (MRSA) it was “MRSA (D)”; in the assay with microorganisms [1] (S. epidermidis) it was “S. epidermidis (C)”; in the assay on microorganisms [1] (S. pneumoniae), “S. pneumoniae (D)”. The Activities entry in the assay on microorganisms [2] is on record as “G B”.
Regarding “PF-615: peptide having multiple activities (chain 1 FLNRFIFYIFTVKTKSALIKNLFLD; chain 2 FLNRFIFYIFTVKTKSALIKNLFLD; Peptide with targeting and/or antimicrobial activity)”, the “Organism, effect” value in the assay with microorganisms [1] (C. jejuni) is reported as “C. jejuni (D)”; with microorganisms [1] (E. coli) it was “E. coli (C)”; in the assay with microorganisms [1] (E. faecalis), “E. faecalis (D)”; in the assay with microorganisms [1] (MRSA) it was “MRSA (D)”; in the assay with microorganisms [1] (S. epidermidis), “S. epidermidis (D)”; with microorganisms [1] (S. pneumoniae), “S. pneumoniae (D)”. For the same substance, the Activities result in the assay on microorganisms [2] is given as “G B”.

These data come from patent US20110039763A1, “TARGETED ANTIMICROBIAL MOIETIES” (C3 JIAN, INC., priority 2009, published 2011).
